# Assay results taken from patent US20220235032A1 (GENFLEET THERAPEUTICS (SHANGHAI) INC., priority 2019, published 2022).
# Tested on: U937 cells
# Experiment: Inhibitory activity against programmed necroptosis of U937 cells induced by TNF-α and Q-VD-Oph (CellTiter-Glo)
# Assay type: cell-based
# Conditions: Celltiter-Glo survival rate
# Method: The U937 cell strain which was used in the following Testing Examples was derived from ATCC, No.: CRL-1593.2, batch No.: 63479999, culture medium: RPMI-1640+10% FBS.
# The compound to be tested was dissolved in DMSO, and diluted with DMSO to a series of gradient concentrations. The U937 cells were inoculated in a 384-well plate at 5000/well. The compound at respective concentration was added to each of the wells, and was mixed with the cells homogeneously. Human TNF-α and Q-VD-Oph were added simultaneously to induce programmed necroptosis of the cells. The cells were placed in the incubator at 37° C. and 5% CO2 for further culture of 48 h. Celltiter-Glo reagent was used for detection. After adequate pyrolysis reaction, the chemiluminescence readout value was recorded by a microplate reader. The survival rate was calculated from the detection results using the equation as follows: SR (%)=(RLU compound−RLU blank)/(RLU high control−RLU blank)×100%. The survival rate was plotted against the final concentration of respective compound using a 4-parameter fitting to calculate the inhibitory C50 of the compound against programmed necroptosis of cells induced by TNF-α.
# [1] = human TNF-α + Q-VD-Oph induced necroptosis, 48 h
Compound,IC50 [1],"IC50 (Homo sapiens, U-937, 48 h)"
"N#Cc1cc(N2CCC(C(=O)N3CCC(c4cc(F)cc(F)c4)=N3)C3(CC3)C2)ncn1 (racemic) [Compound Z-25, 6-(8-(3-(3,5-difluorophenyl)-4,5-dihydro-1H-pyrazole-1-carbonyl)-5-aza-spiro[2.5]oct-5-yl)pyrimidine-4-carbonitrile]",4 nM,–
"N#Cc1cc(N2CCC(C(=O)N3CCC(c4cc(F)cc(F)c4)=N3)C3(CC3)C2)ncn1 (racemic) [Compound Z-26, 6-(8-(3-(3,5-difluorophenyl)-4,5-dihydro-1H-pyrazole-1-carbonyl)-5-aza-spiro[2.5]oct-5-yl)pyrimidine-4-carbonitrile]",244 nM,–
"NC(=O)c1ccnc(N2CC3CC(C(=O)N4N=CCC4c4cncc(F)c4)CC3C2)n1 (racemic) [Compound Z-34, 2-(5-(5-(5-fluoropyridin-3-yl)-4,5-dihydro-1H-pyrazole-1-carbonyl)hexahydrocyclopenta[c]pyrrol-2(1H)-yl)pyrimidine-4-carboxamide]",–,380 nM
"COc1cc(N2CCC(C(=O)N3N=CCC3c3ccccc3)C3(CC3)C2)ncn1 (racemic) [Compound Z-40-1, (5-(6-methoxypyrimidin-4-yl)-5-aza-spiro[2.5]oct-8-yl)(5-phenyl-4,5-dihydro-1H-pyrazol-1-yl) ketone]",–,9 nM
"COc1nccc(N2CCC(C(=O)N3N=CCC3c3ccccc3)C3(CC3)C2)n1 (racemic) [Compound Z-41-1, (5-(2-methoxypyrimidin-4-yl)-5-aza-spiro[2.5]oct-8-yl)(5-phenyl-4,5-dihydro-1H-pyrazol-1-yl) ketone]",–,5 nM
"NC(=O)c1cc(N2CCC(C(=O)N3N=CCC3c3ccccc3)C3(CC3)C2)ncn1 (racemic) [Compound Z-43-2, 6-(8-(5-phenyl-4,5-dihydro-1H-pyrazole-1-carbonyl)-5-aza-spiro[2.5]oct-5-yl)pyrimidine-4-carboxamide]",–,45 nM
"NC(=O)c1cc(N2CCC(C(=O)N3N=CCC3c3cc(F)cc(F)c3)C3(CC3)C2)ncn1 (racemic) [Compound Z-44-2, 6-(8-(5-(3,5-difluorophenyl)-4,5-dihydro-1H-pyrazole-1-carbonyl)-5-aza-spiro[2.5]oct-5-yl)pyrimidine-4-carboxamide]",–,22 nM
"NC(=O)c1ccnc(N2CCC(C(=O)N3N=CCC3c3cc(F)cc(F)c3)C3(CC3)C2)n1 (racemic) [Compound Z-46-1, 2-(8-(5-(3,5-difluorophenyl)-4,5-dihydro-1H-pyrazole-1-carbonyl)-5-aza-spiro[2.5]oct-5-yl)pyrimidine-4-carboxamide]",–,4 nM
"N#Cc1cc(N2CCC(C(=O)N3N=CCC3c3cncc(F)c3)C3(CC3)C2)ncn1 (racemic) [Compound Z-48-1, 6-(8-(5-(5-fluoropyridin-3-yl)-4,5-dihydro-1H-pyrazole-1-carbonyl)-5-aza-spiro[2.5]oct-5-yl)pyrimidine-4-carbonitrile]",30 nM,–
"N#Cc1cc(N2CCC(C(=O)N3N=CCC3c3cncc(F)c3)C3(CC3)C2)ncn1 (racemic) [Compound Z-48-2, 6-(8-(5-(5-fluoropyridin-3-yl)-4,5-dihydro-1H-pyrazole-1-carbonyl)-5-aza-spiro[2.5]oct-5-yl)pyrimidine-4-carbonitrile]",361 nM,–
"NC(=O)c1cc(N2CCC(C(=O)N3N=CCC3c3cncc(F)c3)C3(CC3)C2)ncn1 (racemic) [Compound Z-49-1, 6-(8-(5-(5-fluoropyridin-3-yl)-4,5-dihydro-1H-pyrazole-1-carbonyl)-5-aza-spiro[2.5]oct-5-yl)pyrimidine-4-carboxamide]",–,279 nM
"N#Cc1cc(N2CCC(C(=O)N3N=CCC3c3cc(F)ccc3F)C3(CC3)C2)ncn1 (racemic) [Compound Z-52-1, 6-(8-(5-(2,5-difluorophenyl)-4,5-dihydro-1H-pyrazole-1-carbonyl)-5-aza-spiro[2.5]oct-5-yl)pyrimidine-4-carbonitrile]",4 nM,–
"N#Cc1cc(N2CCC(C(=O)N3N=CCC3c3cc(F)ccc3F)C3(CC3)C2)ncn1 (racemic) [Compound Z-52-2, 6-(8-(5-(2,5-difluorophenyl)-4,5-dihydro-1H-pyrazole-1-carbonyl)-5-aza-spiro[2.5]oct-5-yl)pyrimidine-4-carbonitrile]",41 nM,–
"NC(=O)c1cc(N2CCC(C(=O)N3N=CCC3c3cc(F)ccc3F)C3(CC3)C2)ncn1 (racemic) [Compound Z-53-1, 6-(8-(5-(2,5-difluorophenyl)-4,5-dihydro-1H-pyrazole-1-carbonyl)-5-aza-spiro[2.5]oct-5-yl)pyrimidine-4-carboxamide]",26 nM,–
"NC(=O)c1cc(N2CCC(C(=O)N3N=CCC3c3cc(F)ccc3F)C3(CC3)C2)ncn1 (racemic) [Compound Z-53-2, 6-(8-(5-(2,5-difluorophenyl)-4,5-dihydro-1H-pyrazole-1-carbonyl)-5-aza-spiro[2.5]oct-5-yl)pyrimidine-4-carboxamide]",331 nM,–
"N#Cc1cc(N2CCC(C(=O)N3N=CCC3c3ccccc3)C3(CC3)C2)ncn1 (racemic) [Compound Z-60-2, 6-(8-(5-phenyl-4,5-dihydro-1H-pyrazole-1-carbonyl)-5-aza-spiro[2.5]oct-5-yl)pyrimidine-4-carbonitrile]",–,7 nM

Compound,IC50 [1],"IC50 (Homo sapiens, U-937, 48 h)"
"NC(=O)c1cc(N2CCC(C(=O)N3N=CCC3c3cc(F)cc(F)c3)CC23CC3)ncn1 (racemic) [Compound Z-64-a, 6-(7-(5-(3,5-difluorophenyl)-4,5-dihydro-1H-pyrazole-1-carbonyl)-4-aza-spiro[2.5]oct-4-yl)pyrimidine-4-carboxamide]",–,10 nM
"CN(C)C(=O)c1cc(N2CC[C@H](C(=O)N3N=CC[C@H]3c3cc(F)cc(F)c3)CC23CC3)ncn1 (racemic) [Compound Z-69, 6-((S)-7-((S)-5-(3,5-difluorophenyl)-4,5-dihydro-1H-pyrazole-1-carbonyl)-4-aza-spiro[2.5]oct-4-yl)-N,N-dimethylpyrimidine-4-carboxamide]",–,127 nM
"N#Cc1cc(N2CC3CCC(C2)C3C(=O)N2N=CCC2c2ccccc2)ncn1 (single isomer, unassigned) [Compound Z-2, 6-(8-(5-phenyl-4,5-dihydro-1H-pyrazole-1-carbonyl)-3-azabicyclo[3.2.1]oct-3-yl)pyrimidine-4-carbonitrile]",156 nM,–
"N#Cc1cc(N2CC3CCC(C2)C3C(=O)N2N=CCC2c2ccccc2)ncn1 (single isomer, unassigned) [Compound Z-3, 6-(8-(5-phenyl-4,5-dihydro-1H-pyrazole-1-carbonyl)-3-azabicyclo[3.2.1]oct-3-yl)pyrimidine-4-carbonitrile]",322 nM,–
"NC(=O)c1ccnc(N2C[C@@H]3CC(C(=O)N4N=CC[C@@H]4c4cc(F)cc(F)c4)C[C@H]3C2)n1 (single isomer, unassigned) [Compound Z-18-4]",62 nM,–
"NC(=O)c1ccnc(N2C[C@H]3C[C@H](C(=O)N4N=CC[C@@H]4c4cc(F)ccc4F)C[C@H]3C2)n1 (single isomer, unassigned) [Compound Z-22-2]",–,48 nM
"Nc1nc(N2C[C@H]3C[C@@H](C(=O)N4N=CC[C@@H]4c4cc(F)cc(F)c4)C[C@H]3C2)ncc1F (single isomer, unassigned) [Compound Z-23-4]",41 nM,–
"N#Cc1ccnc(N2C[C@H]3C[C@@H](C(=O)N4N=CC[C@@H]4c4cc(F)cc(F)c4)C[C@H]3C2)n1 (single isomer, unassigned) [Compound Z-32-4]",61 nM,–
"COc1nccc(N2C[C@H]3C[C@H](C(=O)N4N=CC[C@@H]4c4ccccc4)C[C@H]3C2)n1 (single isomer, unassigned) [Compound Z-37-2]",22 nM,–
"N#Cc1cc(N2C[C@H]3C[C@H](C(=O)N4N=CC[C@@H]4c4cc(F)cc(F)c4)C[C@H]3C2)ncn1 (single isomer, unassigned) [Compound Z-38-2]",27 nM,–
"N#Cc1cc(N2C[C@H]3C[C@@H](C(=O)N4N=CC[C@@H]4c4cc(F)cc(F)c4)C[C@H]3C2)ncn1 (single isomer, unassigned) [Compound Z-38-4]",82 nM,–
"Nc1nc(N2C[C@H]3C[C@@H](C(=O)N4N=CC[C@@H]4c4ccccc4)C[C@H]3C2)ncc1F (single isomer, unassigned) [Compound Z-39-4]",88 nM,–
"N#Cc1cc(N2CC[C@@H](C(=O)N3N=CC[C@@H]3c3cncc(F)c3)CC23CC3)ncn1 (single isomer, unassigned) [Compound Z-65-4]",–,14 nM
"Nc1nc(N2CC3CC(C(=O)N4N=CCC4c4ccccc4)CC3C2)ncc1F (centres unmarked) [Compound Z-14, (2-(4-amino-5-fluoropyrimidin-2-yl)octahydrocyclopenta[c]pyrrol-5-yl)(5-phenyl-4,5-dihydro-1H-pyrazol-1-yl) ketone]",–,165 nM
"NC(=O)c1cc(N2CC3CC(C(=O)N4N=CCC4c4cc(F)cc(F)c4)CC3C2)ncn1 (centres unmarked) [Compound Z-17, 6-(5-(5-(3,5-difluorophenyl)-4,5-dihydro-1H-pyrazole-1-carbonyl)hexahydrocyclopenta[c]pyrrol-2(1H)-yl)pyrimidine-4-carboxamide]",–,248 nM
"NC(=O)c1ccnc(N2CC3CC(C(=O)N4N=CCC4c4cc(F)cc(F)c4)CC3C2)n1 (centres unmarked) [Compound Z-18, 2-(5-(5-(3,5-difluorophenyl)-4,5-dihydro-1H-pyrazole-1-carbonyl)hexahydrocyclopenta [c]pyrrol-2(1H)-yl)pyrimidine-4-carboxamide]",–,94 nM
